One may read the pIC50 as the IC50 on a negative log10 scale, so that one unit is a factor of ten. A low value points to a large IC50.

The target in assay [1] is FGFR2 (Homo sapiens (Human), UniProt P21802). The assay can be described thus: FGFR2 Biochemical Caliper Assay. As to the method:
Compounds of the present invention were also tested in a FGFR2 Biochemical Caliper Assay. Compounds were prepared in 10 mM DMSO solution and serially diluted into 11 concentrations by 3-fold dilution. […] 5 uL of ATP solution (100 uM) was added to start the reaction and the plate was incubated for 90 minutes, then 70 uL of stopping buffer (0.5M EDTA) was added to terminate the reaction. Each well was analyzed using EZ reader.

Assay [2] has as its system SNU16 cells. The assay can be described thus: SNU16 Cancer Cell Line Proliferation Assay. The format is cell-based. Conditions: Homo sapiens; SNU-16 cells. As to the method:
Compounds of the present invention were also tested in a SNU16 Cancer Cell Line Proliferation Assay, Test compounds were prepared in a 10 mM DMSO stock solution. 45 uL of stock solution was transferred to a 384 well plate, and a 3-fold 11-point dolution was performed. SNU16 cells in a 384 well cell culture plate were seeded and incubated at 37 degrees for 24 hours. 40 nL of each concentration of compound was transferred from the compound plate to a corresponding well in the cell culture plate by Echo550 liquid handler. The plates were incubated for 96 hours, then equilibrated to room temperature for 15 minutes. 20 uL of CellTiter Glo reagent is added into each well, then the plate was shaken gently for 30 minutes at room temperature. Chemiluminescence was then read on an EnVision reader.

pIC50: −log10 of the molar value. Where only a bound is given, the exact number is not on record here.

Sequence of FGFR2 (P21802 22-821): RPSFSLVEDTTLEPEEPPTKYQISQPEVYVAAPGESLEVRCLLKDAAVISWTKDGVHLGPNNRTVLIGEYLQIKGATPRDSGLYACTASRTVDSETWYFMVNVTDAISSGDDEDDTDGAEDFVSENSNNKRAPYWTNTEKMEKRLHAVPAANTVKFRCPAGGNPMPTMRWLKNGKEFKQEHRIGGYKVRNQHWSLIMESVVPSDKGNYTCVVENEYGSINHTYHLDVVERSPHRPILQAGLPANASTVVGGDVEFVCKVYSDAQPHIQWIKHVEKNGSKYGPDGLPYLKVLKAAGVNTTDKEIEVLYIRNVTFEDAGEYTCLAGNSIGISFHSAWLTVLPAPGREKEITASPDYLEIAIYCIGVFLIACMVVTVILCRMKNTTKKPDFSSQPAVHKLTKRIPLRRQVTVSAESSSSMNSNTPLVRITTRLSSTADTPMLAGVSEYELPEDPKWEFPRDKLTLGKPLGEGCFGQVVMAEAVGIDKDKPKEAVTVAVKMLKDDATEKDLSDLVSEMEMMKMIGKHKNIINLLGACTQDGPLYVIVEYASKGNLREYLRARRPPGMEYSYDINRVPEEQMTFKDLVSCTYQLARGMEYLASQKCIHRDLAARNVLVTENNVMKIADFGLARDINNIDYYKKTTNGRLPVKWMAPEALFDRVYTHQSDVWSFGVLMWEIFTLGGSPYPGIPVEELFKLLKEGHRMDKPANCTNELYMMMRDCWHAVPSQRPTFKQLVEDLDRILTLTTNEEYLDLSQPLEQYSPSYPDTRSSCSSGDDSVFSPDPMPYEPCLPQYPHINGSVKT

As to `C=C(C)C(=O)Nc1ccc(-c2c(-c3ccc(C(=O)N[C@@H](CO)CC4CC4)cc3)c3c(N)ncnc3n2C)cc1` [Example 329], the pIC50 was over 7.00 in assay [1] and 6.00 to 6.60 in assay [2].
For `C=CC(=O)N1CCC(c2c(-c3ccc(CN4CC[C@@H](O)C4)cc3)c3c(N)ncnc3n2C)C1` (stereo partly drawn) [Example 724] the same measures were 4.00 to 6.00 and 4.00 to 6.00.
Turning to `CC#CC(=O)N1CCC(c2c(-c3ccc(Oc4cccc(C)n4)cc3)c3c(N)ncnc3n2C)C1` (stereo not drawn) [Example 699], the negative-log IC50 (pIC50) in assay [1] is 6.60 to 7.00; in assay [2], at least 7.00.
`C=C(C)C(=O)Nc1ccc(-c2c(-c3ccc(C(=O)NC(CF)CF)cc3)c3c(N)ncnc3n2C)cc1` [Example 371]: the figures for the pIC50 in assay [1] and in assay [2] were over 7.00 and at least 7.00, respectively.
The matching figures for `C=CC(=O)N1CCC=C(c2c(-c3ccc(Oc4cccc(C)n4)c(OC)c3)c3c(N)ncnc3n2C)C1` [Example 657]: 4.00 to 6.00 and 4.00 to 6.00.
As for `C=CC(=O)N1CCC(c2c(-c3cnn(C4CCCC4)c3)c3c(N)ncnc3n2C)C1` (stereo not drawn) [Example 726], the negative logarithm of the IC50 (pIC50) in assay [1] and in assay [2] was 4.00 to 6.00 in each case.
As for `C=CC(=O)N1CCC(c2c(-c3ccc(Oc4ccccn4)cc3)c3c(N)ncnc3n2C)C1` (stereo not drawn) [Example 689], the pIC50 is over 7.00 in assay [1] and at least 7.00 in assay [2].
The matching figures for `C=CC(=O)N1CCC(c2c(-c3ccc(NC4CCCC4)cc3)c3c(N)ncnc3n2C)C1` (stereo not drawn) [Example 771]: 4.00 to 6.00 and 4.00 to 6.00.
As to `C=C(C)C(=O)Nc1ccc(-c2c(-c3ccc(Oc4ncc(F)cn4)cc3)c3c(N)ncnc3n2C)cc1` [Example 428], the figures for the pIC50 in assay [1] and in assay [2] were over 7.00 and at least 7.00, respectively.
Consider `C=C(C)C(=O)Nc1ccc(-c2c(-c3ccc(C(=O)N(C)C4CCC4)cc3)c3c(N)ncnc3n2C)cc1` [Example 227], for which the negative logarithm of the IC50 (pIC50) in assay [1] and in assay [2] was 6.60 to 7.00 in each case.
In the case of `CCC(=O)N1CCC(n2cc(-c3c(-c4ccc(Oc5ccccc5)cc4)c4c(N)ncnc4n3C)cn2)CC1` [Example 617], the negative logarithm of the IC50 (pIC50) was 6.60 to 7.00 in assay [1] and 6.00 to 6.60 in assay [2].
With `C=C(C)C(=O)Nc1ccc(-c2c(-c3ccc(C(=O)N4CCC5(CCC5)C4)cc3)c3c(N)ncnc3n2C)cc1` [Example 245], the pIC50 in assay [1] and in assay [2] was 6.00 to 6.60 throughout.
For the compound `C=CC(=O)N1CCCC(n2cc(-c3c(-c4ccc(Oc5ccccc5)cc4)c4c(N)ncnc4n3C)cn2)C1C` (stereo not drawn) [Example 626], the pIC50 was 6.60 to 7.00 in assay [1] and 6.00 to 6.60 in assay [2].
`C=CC(=O)N1CCCC(c2c(-c3ccc(Oc4cccc(C)n4)cc3)c3c(N)ncnc3n2C)C1` (stereo not drawn) [Example 663]: the pIC50 in assay [1] and in assay [2] was 6.00 to 6.60 throughout.
Regarding `C=CC(=O)Nc1ccc(-c2c(C3=CCC(C(=O)NC4CCCC4)CC3)c3c(N)ncnc3n2C)cc1` (stereo not drawn) [Example 298], the pIC50 in assay [1] is over 7.00; in assay [2] it was at least 7.00.
Turning to `C/C=C/C(=O)N1CC(n2cc(-c3c(-c4ccc(Oc5cccc(C)n5)cc4)c4c(N)ncnc4n3C)cn2)C1` [Example 639], the pIC50 was over 7.00 in assay [1] and at least 7.00 in assay [2].
The matching figures for `C=C(C)C(=O)Nc1ccc(-c2c(-c3ccc(C(=O)N4CCC5(CC5)C4)cc3)c3c(N)ncnc3n2C)cc1` [Example 234]: over 7.00 and at least 7.00.
For `C=Cc1ccc(-c2c(-c3ccc(Oc4nccc(C)n4)cc3)c3c(N)ncnc3n2C)cn1` [Example 598], the negative-log IC50 (pIC50) in assay [1] was 6.60 to 7.00; in assay [2], 6.00 to 6.60.
For `C=C(C)C(=O)Nc1ccc(-c2c(-c3ccc(C(=O)N4CCCC4)cc3)c3c(N)ncnc3n2C)cc1F` [Example 215], the negative logarithm of the IC50 (pIC50) in assay [1] and in assay [2] was 6.00 to 6.60 throughout.
On to `C=CC(=O)N1CC=C(c2c(-c3ccc(Oc4ccccn4)cc3)c3c(N)ncnc3n2C)CC1` [Example 681], for which the results for the negative-log IC50 (pIC50) in assay [1] and in assay [2] were over 7.00 and at least 7.00, respectively.
Consider `C=CC(=O)N1CCC=C(c2c(-c3ccc(Oc4cccc(C)n4)cc3)c3c(N)ncnc3n2C)C1` [Example 665], for which the negative logarithm of the IC50 (pIC50) is 6.60 to 7.00 in assay [1] and 6.00 to 6.60 in assay [2].
`C=CC(=O)N1CCC(n2cc(-c3c(-c4ccc(Oc5ccccn5)cc4)c4c(N)ncnc4n3C)cn2)CC1` [Example 638]: the pIC50 in assay [1] is over 7.00; in assay [2] it was at least 7.00.
The matching figures for `C=CC(=O)N1CCC(c2c(-c3ccc(Oc4cccc(C)n4)c(OC)c3)c3c(N)ncnc3n2C)C1` (stereo not drawn) [Example 670]: 6.00 to 6.60 and 6.00 to 6.60.
As for `C=C(C)C(=O)Nc1ccc(-c2c(-c3ccc(-c4ccon4)cc3)c3c(N)ncnc3n2C)cc1` [Example 199], the pIC50 in assay [1] and in assay [2] was 6.00 to 6.60 in each case.
Consider `C=CC(=O)N1CCC(c2c(-c3ccc(Oc4ncc(Cl)cn4)cc3)c3c(N)ncnc3n2C)C1` (stereo not drawn) [Example 739], for which the values for the pIC50 in assay [1] and in assay [2] were 6.60 to 7.00 and at least 7.00, respectively.
As to `C=C(C)C(=O)Nc1ccc(-c2c(-c3ccc(-c4ncco4)nc3)c3c(N)ncnc3n2C)cc1` [Example 313], the pIC50 is 4.00 to 6.00 in assay [1] and 6.00 to 6.60 in assay [2].
`CC#CC(=O)N1CCC(c2[nH]c3ncnc(N)c3c2-c2ccc(C(=O)N3CCCC3)cc2)C1` (stereo not drawn) [Example 774]: the negative-log IC50 (pIC50) in assay [1] and in assay [2] was 4.00 to 6.00 each time.
Consider `C=C(C)C(=O)Nc1ccc(-c2c(-c3ccc(C(=O)NCc4ncon4)cc3)c3c(N)ncnc3n2C)cc1` [Example 282], for which the results for the pIC50 in assay [1] and in assay [2] were 6.60 to 7.00 and 6.00 to 6.60, respectively.
Regarding `Cc1cccc(Oc2ccc(-c3c(-c4ccc(NC(=O)C(C)C)cc4)n(C)c4ncnc(N)c34)cc2)n1` [Example 70], the negative logarithm of the IC50 (pIC50) in assay [1] and in assay [2] was 6.00 to 6.60 each time.
Consider `C=C(C)C(=O)Nc1ccc(-c2c(-c3ccc(S(=O)(=O)NC4COC4)cc3)c3c(N)ncnc3n2C)cc1` [Example 301], for which the pIC50 in assay [1] was 4.00 to 6.00; in assay [2] it was 6.00 to 6.60.
Regarding `C=C(C)C(=O)Nc1ccc(-c2c(-c3ccc(C(=O)N(C)C4CCCC4)cc3)c3c(N)ncnc3n2C)cc1` [Example 233], the negative-log IC50 (pIC50) in assay [1] and in assay [2] was 6.60 to 7.00 each time.
With `C=CC(=O)Nc1ccc(-c2c(C3=CCC(C(=O)NC)CC3)c3c(N)ncnc3n2C)cc1` (stereo not drawn) [Example 148], the negative-log IC50 (pIC50) in assay [1] is over 7.00; in assay [2], at least 7.00.
Consider `C=C(C)C(=O)Nc1ccc(-c2c(-c3ccc(C(=O)N4CCCC5(CC5)C4)cc3)c3c(N)ncnc3n2C)cc1` [Example 264], for which the negative-log IC50 (pIC50) in assay [1] was 6.60 to 7.00; in assay [2], at least 7.00.
The matching figures for `C=CC(=O)N1CCC(c2[nH]c3ncnc(N)c3c2-c2ccc(Oc3ncccn3)cc2)C1` (stereo not drawn) [Example 709]: over 7.00 and at least 7.00.
Take `C=C(C)C(=O)Nc1ccc(-c2c(-c3ccc(C(=O)N[C@@H](CO)C4CC4)cc3)c3c(N)ncnc3n2C)cc1` [Example 290]: the pIC50 was over 7.00 in assay [1] and 6.60 to 7.00 in assay [2].
For `C=CC(=O)Nc1ccc(-c2c(-c3ccc(Oc4cccc(C)n4)c(OC)c3)c3c(N)ncnc3n2C)cc1` [Example 1] the same measures were over 7.00 and at least 7.00.
Consider `C=CC(=O)Nc1ccc(-c2c(-c3ccc(Oc4ncccn4)c(N(C)C)c3)c3c(N)ncnc3n2C)cc1` [Example 49], for which the values for the pIC50 in assay [1] and in assay [2] were over 7.00 and at least 7.00, respectively.
For the compound `C=CC(=O)N1CCC(n2cc(-c3c(-c4ccc(Oc5cccc(F)n5)cc4)c4c(N)ncnc4n3C)cn2)CC1` [Example 634], the figures for the negative logarithm of the IC50 (pIC50) in assay [1] and in assay [2] were over 7.00 and at least 7.00, respectively.
As for `C=C(C)C(=O)Nc1ccc(-c2c(-c3cc(F)c(Oc4ncccn4)c(F)c3)c3c(N)ncnc3n2C)cc1` [Example 110], the negative-log IC50 (pIC50) in assay [1] was over 7.00; in assay [2], at least 7.00.
For `C=C(C)C(=O)Nc1ccc(-c2c(-c3ccc(C(=O)NC4COC4)cc3)c3c(N)ncnc3n2C)cc1` [Example 289] the same measures were 6.00 to 6.60 and 6.00 to 6.60.
With `C=CC(=O)Nc1ccc(-c2c(-c3ccc(OC4CCOC4)c(C)c3)c3c(N)ncnc3n2C)cc1` (stereo not drawn) [Example 174], the negative logarithm of the IC50 (pIC50) in assay [1] is over 7.00; in assay [2], at least 7.00.
As for `C/C=C(\C#N)C(=O)N1CCC(n2cc(-c3c(-c4ccc(Oc5cccc(C)n5)cc4)c4c(N)ncnc4n3C)cn2)CC1` [Example 668], the pIC50 in assay [1] is over 7.00; in assay [2] it was 4.00 to 6.00.
Regarding `C=C(C)C(=O)Nc1ccc(-c2c(-c3ccc(Oc4nccc(C)n4)c(F)c3)c3c(N)ncnc3n2C(C)C)cc1` [Example 499], the negative logarithm of the IC50 (pIC50) in assay [1] is over 7.00; in assay [2], at least 7.00.
Consider `C=CC(=O)N1CCC(c2c(-c3ccc(Oc4ncccn4)cc3)c3c(N)ncnc3n2CC)C1` (stereo not drawn) [Example 705], for which the pIC50 in assay [1] is 6.60 to 7.00; in assay [2], at least 7.00.
Consider `C=C(C)C(=O)Nc1ccc(-c2c(-c3ccc(C(=O)N(C)CC(C)C)cc3)c3c(N)ncnc3n2C)cc1` [Example 410], for which the pIC50 in assay [1] is over 7.00; in assay [2] it was at least 7.00.
Regarding `C=C(C)C(=O)Nc1ccc(-c2c(-c3ccc(C(=O)NCC(F)F)cc3)c3c(N)ncnc3n2C)cc1` [Example 305], the negative logarithm of the IC50 (pIC50) in assay [1] is over 7.00; in assay [2], at least 7.00.
On to `CC#CC(=O)N1CCC(n2cc(-c3c(-c4ccc(Oc5cccc(C)n5)cc4)c4c(N)ncnc4n3C)cn2)CC1` [Example 644], for which the negative-log IC50 (pIC50) in assay [1] and in assay [2] was 6.00 to 6.60 each time.
For the compound `C=C(C)C(=O)Nc1ccc(-c2c(C3=CC[C@H](C(=O)N4CCCC4)CC3)c3c(N)ncnc3n2C)cc1` (single isomer, unassigned) [Example 398], the pIC50 in assay [1] is over 7.00; in assay [2] it was at least 7.00.

The record behind these values is US11780845B2 (Relay Therapeutics, Inc., priority 2019, dated 2023).
